US5686628A, “Proline derivatives” (Zeneca Ltd., priority 1995, dated 1997)
Where two headings read alike, the source gives them in different places. Where a SMILES comes first, the peptide text is derived from it. [ ]: non-standard residue; d: D form. The star is where a group is joined. ξ: configuration not given here. ξV = CC(C)C(N)C(=O)O; CF3 = FC(F)(F)*; Moc = COC(=O)*

Tests used:
[1] = Solubility in aqueous buffer; assay type: physicochemical; conditions: crystalline hydrated forms
Hygroscopicity = assay type: physicochemical
[2] = biological target: T1, human leukocyte elastase (HLE) (Homo sapiens, UniProt P08246); experiment: Inhibition of human leukocyte elastase (HLE) on low molecular weight peptide substrate methoxy-succinyl-alanyl-alanyl-prolyl-valine-p-nitroanilide; assay type: biochemical; conditions: kinetic determination, read-out: Ki (dissociation constant of the complex formed from the interaction of the inhibitor with HLE)
T1 sequence (P08246 30-267): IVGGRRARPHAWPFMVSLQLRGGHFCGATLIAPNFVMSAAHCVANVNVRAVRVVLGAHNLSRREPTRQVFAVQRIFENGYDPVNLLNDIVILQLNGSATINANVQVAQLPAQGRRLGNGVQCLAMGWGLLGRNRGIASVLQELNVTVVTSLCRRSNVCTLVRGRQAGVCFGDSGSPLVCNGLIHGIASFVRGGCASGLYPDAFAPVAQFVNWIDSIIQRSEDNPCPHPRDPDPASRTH
Protocol: The potency of the compound of the invention (or a particular form thereof) to act as an inhibitor of human leukocyte elastase (HLE) on the low molecular weight peptide substrate methoxy-succinyl-alanyl-alanyl-prolyl-valine-p-nitroanilide is determined as described in U.S. Pat. No. 4,910,190. The potency of the compound is evaluated by obtaining a kinetic determination of the dissociation constant, Ki, of the complex formed from the interaction of the inhibitor with HLE.

[3] = biological target: T2, human neutrophil elastase (HNE) (Homo sapiens, UniProt P08246); experiment: Acute Hemorrhagic Assay (HNE-induced lung hemorrhage in hamsters); assay type: in vivo, Male Syrian hamsters; conditions: hamster, 50 μg/animal HNE intratracheal, 4 h, read-out: ED50 (inhibition of HNE-induced hemorrhage)
T2 sequence (P08246 30-267): T1 sequence (P08246 30-267)
Protocol: This assay relies on monitoring only the amount of hemorrhage in the lung following intratracheal administration of human neutrophil elastase (HNE). Hemorrhage is quantified by disrupting erythrocytes recovered in lung lavage fluid and comparing that to dilutions of whole hamster blood. […] Male Syrian hamsters (fasted for 16-18 hours prior to use) are lightly anaesthetised with Brevital sodium (30 mg/kg i.p.). […] Four hours after enzyme administration, the animals are killed with an overdose of pentobarbital sodium, the thorax opened and the lungs and heart removed and the lungs cleared of extraneous material. The excised lungs are lavaged with three changes of 2 ml PBS via a tracheal cannula. The recovered lavages are pooled, the volumes (about 5 mL) are recorded and the lavages stored at 4 ° C. until assayed. For calculation of the amount of blood in each sample, the thawed lavages and a sample of whole hamster blood are sonicated to disrupt erythrocytes and appropriately diluted into individual wells of a 96-well microtiter plate. The optical densities (OD) of the disrupted lavages and blood samples are determined at 540 nm. The (μL blood equivalents) / (mL lavage) are determined by comparing the OD of the test samples with the OD of the standard curve prepared from whole hamster blood. The total μL equivalents of blood recovered is determined by multiplying recovered lavage volume by the (μL blood equivalents) / (mL lavage) for each sample.

Bioavailability = assay type: in vivo; conditions: crystalline hydrated forms

Structure (SMILES): COC(=O)N[C@H](C(=O)N1CCC[C@H]1C(=O)N[C@H](C(=O)C(F)(F)F)C(C)C)C(C)C [Example 2, (S)-1-[(S)-2-(methoxycarbonylamino)-3-methylbutyryl]-N-[(S)-2-methyl-1-(2,2,2-trifluoroacetyl)propyl]-pyrrolidine-2-carboxamide] (HELM PEPTIDE1{[COC(=O)[*:2]].V.P.V.[FC(F)(F)[*:1]]}$$$$V2.0)
- solubility in aqueous buffer [1]: good solubility in aqueous buffer
- hygroscopicity (Hygroscopicity; listed as Form A): non-hygroscopic
- Ki [2]: 9 nM
- ED50 ([3]; iv, i.v. administration): 0.6 mg/kg
- ED50 ([3]; oral dosing): 1.9 mg/kg
- bioavailability (Bioavailability): good bioavailability

Structure (SMILES): COC(=O)N[C@H](C(=O)N1CCC[C@H]1C(=O)N[C@H](C(=O)C(F)(F)F)C(C)C)C(C)C [Example 8] (HELM PEPTIDE1{[COC(=O)[*:2]].V.P.V.[FC(F)(F)[*:1]]}$$$$V2.0)
- hygroscopicity (Hygroscopicity; listed as Form B): non-hygroscopic

Structure (SMILES): COC(=O)N[C@H](C(=O)N1CCC[C@H]1C(=O)NC(C(=O)C(F)(F)F)C(C)C)C(C)C (stereo partly drawn) [Example 1, (S)-1-[(S)-2-(methoxycarbonylamino)-3-methylbutyryl]-N-[2-methyl-1-(2,2,2-trifluoroacetyl)propyl]pyrrolidine-2-carboxamide] (Moc-Val-Pro-[ξV]-CF3)
- Ki [2]: 36 nM
- ED50 ([3]; oral dosing): 4.5 mg/kg

Structure (SMILES): COC(=O)N[C@H](C(=O)N1CCC[C@H]1C(=O)N[C@H](C(=O)C(F)(F)F)C(C)C)C(C)C [Example 10] (HELM PEPTIDE1{[COC(=O)[*:2]].V.P.V.[FC(F)(F)[*:1]]}$$$$V2.0)
- hygroscopicity (Hygroscopicity; listed as "ketone" form): hygroscopic
